This is an account of results in patent US9832995B2, “Microbial composition” (Rohm and Haas Company, priority 2011, dated 2017).

Usually MBC stands for the smallest concentration meeting the test's criterion for killing.

For assay [1], the system named is Escherichia coli (E. coli - ATCC #10536). The assay can be described thus: Synergy test: high resolution MBC microtiter plate assay, 15 seconds contact, phosphate buffer containing 35% dipropylene glycol. In kind it is cell-based. Particulars: E. coli 10536; for SI (Synergy Index = Qa/QA + Qb/QB): for Qa and Qb, less than one = synergy; for MBC of the component acting alone (QA or QB; Qa with Qb = 0, or Qb with Qa = 0): complete kill in 15 seconds, phosphate buffer with 35% DPG. The source says:
The concentrations and ratios may also vary under different test conditions or with different test methods.
One measure of synergy is the industrially accepted method described by Kull, F. C.; Eisman, P. C.; Sylwestrowicz, H. D. and Mayer, R. L., in Applied Microbiology 9:538-541 (1961), using the ratio determined by the formula: Qa/QA+Qb/QB=Synergy Index (“SI”) wherein: • QA=concentration of compound A (first component) in percent, acting alone, which produced an end point (MBC of Compound A). • Qa=concentration of compound A in percent, in the mixture, which produced an end point. • QB=concentration of compound B (second component) in percent, acting alone, which produced an end point (MBC of Compound B). • Qb=concentration of compound B in percent, in the mixture, which produced an end point.
When the sum Qa/QA and Qb/QB is greater than one, antagonism is indicated. […] The lower the SI, the greater is the synergy shown by that particular mixture. The minimum biocidal concentration (MBC) of a microbicide is the lowest concentration tested under a specific set of conditions that provides complete kill of the tested microorganisms.
Synergy tests were conducted using standard microliter plate assays with phosphate buffer containing 35% dipropylene glycol (DPG). In this method, a wide range of combinations of chemicals was tested by conducting high resolution MBC assays of Component (A) in the presence of various concentrations of Component (B). High resolution MBCs were determined by adding varying amounts of microbicide to one column of a microliter plate and doing subsequent […] dilutions using an automated liquid handling system to obtain a series of closely spaced endpoints. The MBC plate was inoculated one column at a time with the test microorganism. An aliquot of the inoculated well was transferred at 15 seconds to a plate containing a neutralising agent (D/E Neutralising Broth), mixed and held for 5 minutes before being transferred to a growth plate-containing trypticase soy broth (TSB). The TSB plate was incubated at 37° C. and read for the presence/absence of growth at 24 hours. The lowest level tested that provided complete kill (as evidenced by no growth in the microtitre plate) of the test organisms in 15 seconds is the minimum biocidal concentration (MBC).
The synergy of the combinations of the present invention was determined against a bacterium, Escherichia coli (E. coli—ATCC #10536), at a concentration of approximately 1×10^8 bacteria per mL. This microorganism is representative of natural contaminants in many consumer and industrial applications.

Assay [2] shares this test system. The assay can be described thus: Automated assessment of efficacy in model surfactant solution (2.85% sodium cocoyl glycinate + 1.85% sodium lauroamphoacetate, pH 10), 15 seconds exposure. In kind it is cell-based. Particulars: for MBC (% w/v) / MBC: 2.85% sodium cocoyl glycinate + 1.85% sodium lauroamphoacetate solution at pH 10, E. coli, component alone; for No. of replicates showing growth (out of 4) / ΔOD 450 nm = OD450 (time = 16 hours) − OD450 (time zero), Mean / ΔOD 590 nm = OD590 (time = 16 hours) − OD590 (time zero), Mean: model surfactant solution, pH 10, 15 s exposure; for MBC: Escherichia coli, ATCC10536, 15 s. How it is done:
In these examples, the efficacy of combinations of actives were tested in a surfactant cleansing formulation comprising 2.85% sodium cocoyl glycinate and 1.85% sodium, lauroamphoacetate.
This corresponds to a 50% in use dilution with water of a neat formulation containing 5.7% cocoyl glycinate and 3.7% sodium lauroamphoacetate during hand washing.
Solutions were prepared such that the concentrations of the surfactant components and test actives were 1.1× the final desired concentration in order to allow for dilution with the bacterial inoculum in the test. The solutions were manually adjusted to pH 10.0 by dropwise addition of sodium hydroxide solution, as measured with a pH meter at ambient temperature.
The efficacy of the combinations of the present invention was determined against Escherichia coli (E. coli—ATCC #10536), at a concentration of approximately 1×10^8 bacteria per mL.
Tests were conducted using standard microliter plate assays using an automated liquid handling system. 270 μl of the surfactant test solution was pipetted into each well of the microtitre plate and 30 μl of the bacterial suspension was then added. After exactly 15 seconds of bacterial exposure, a 30 μl volume of bacterial cells was withdrawn and transferred to 270 μl of D/E quench solution. After 5 minutes in the D/E quench, the optical density (OD) was measured for each plate in turn at two specific wavelengths (450 nm and 590 nm). These provide a dual check of antimicrobial, activity, as the OD450 reading is specific for the yellow colour of D/E quench when bacterial growth is observed, whereas OD590 is specific for the initial purple colour of the D/E quench which is retained if no bacterial growth is observed. After the time zero OD measurements, plates were then incubated at 37° C. overnight (16 hours) before repeating the OD measurements, Delta OD values were calculated by subtracting […] the initial value at time zero. Bacterial growth is observed as an increase in OD450 and a decrease in ΔOD590. To identify antibacterially efficacious systems (those preventing appreciable bacterial growth after incubation), the following threshold changes in OD readings have been adopted: if (1). OD450 increases by less than 0.2 absorbance unit on incubation and (2). OD590 decreases by less than 0.35 unit on incubation. Conversely, where OD450 increases by more than 0.2 AU and OD590 decreases by more than 0.35 unit after incubation, corresponding to a colour shift from purple to yellow, the test system allows bacterial growth and is not deemed efficacious. Four replicate measurements in the same plate have been made for each test system. The number of replicate wells showing either bacterial growth or no growth is also readily assessed by eye by following the colour change.

For a further assay, the system named is S. aureus 6538. The assay can be described thus: Antimicrobial efficacy of actives against S. aureus in water. Format: cell-based, Staphylococcus aureus.
The mark [3] stands for this setting: single active alone at 0.1% w/v.
The mark [4] stands for this setting: single active alone at 0.2% w/v.
[5] abbreviates: single active alone at 0.5% w/v.
The mark [6] stands for this setting: single active alone at 0.175% w/v.

Values joined by “and” are separate entries in the source; they are usually repeats but may differ in a detail not shown here. Identical values can stand only once.

In the case of `Oc1ccccc1C1CCCC1` [2-cyclopentylphenol], the “SI (Synergy Index = Qa/QA + Qb/QB)” value in assay [1] amounted to 1.00.
As to `Oc1ccccc1Cc1ccccc1` [2-hydroxydiphenylmethane], in assay [1], the “MBC of the component acting alone (QA or QB; Qa with Qb = 0, or Qb with Qa = 0)” value (shortened to “MBC of the component acting alone”) is 0.8 weight % and 0.6 weight % and 1.0 weight % and 0.5 weight %; the “SI (Synergy Index = Qa/QA + Qb/QB)” value was found to be 1.00. Besides, in assay [2], the “MBC (% w/v)” value is on record as over 0.2 % w/v. Also, in assay [2] (setting [3]), the “No. of replicates showing growth (out of 4)” value is recorded as 4; the “ΔOD 450 nm = OD450 (time = 16 hours) − OD450 (time zero), Mean” value (shortened to “ΔOD 450 nm = OD450”) is −0.51; the “ΔOD 590 nm = OD590 (time = 16 hours) − OD590 (time zero), Mean” value (from here on “ΔOD 590 nm = OD590”) came to 0.62. For the same molecule, in assay [2] (setting [4]), the “No. of replicates showing growth (out of 4)” value was 4; the “ΔOD 450 nm = OD450” value is −0.51; the “ΔOD 590 nm = OD590” value is 0.63. Further, in assay [2] (single active alone at […] w/v), the “No. of replicates showing growth (out of 4)” value is given as 4; the “ΔOD 450 nm = OD450” value is −0.49; the “ΔOD 590 nm = OD590” value came to 0.64.
For the molecule `C=C(C)C1CC=C(C)C(O)C1` (centres unmarked) [2-methyl-5-(prop-1-en-2-yl)cyclohex-2-enol], the “SI (Synergy Index = Qa/QA + Qb/QB)” value in assay [1] came to 1.0. In assay [2] (setting [5]), the “No. of replicates showing growth (out of 4)” value was found to be 0; the “ΔOD 450 nm = OD450” value was found to be 0.23; the “ΔOD 590 nm = OD590” value is 0.20. Besides, the “No. of replicates showing growth (out of 4)” value in assay [2] (single active alone at […] w/v) is given as 4. In addition, the “Log Reduction” value in the assay with S. aureus 6538 ([…] carveol) is on record as 0.08.
`C=C(C)C1CCC(C)C(O)C1` (centres unmarked) [2-methyl-5-(prop-1-en-2-yl)cyclohexanol]: the “SI (Synergy Index = Qa/QA + Qb/QB)” value in assay [1] was found to be 1.00. In addition, in assay [2] (setting [4]), the “No. of replicates showing growth (out of 4)” value was found to be 4; the “ΔOD 450 nm = OD450” value is given as −0.49; the “ΔOD 590 nm = OD590” value was found to be 0.63. For the same molecule, in assay [2] (single active alone at […] w/v), the “No. of replicates showing growth (out of 4)” value was 4; the “ΔOD 450 nm = OD450” value was −0.43; the “ΔOD 590 nm = OD590” value came to 0.66.
Take `Cc1ccc(C(C)C)c(O)c1O` [3-isopropyl-6-methylbenzene-1,2-diol]: the MBC in assay [2] is over 2000 mg/L.
Consider `Cc1cc(O)c(C(C)C)cc1Cl` [4-chloro-2-isopropyl-5-methylphenol, reference compound], for which, in assay [2] (setting [6]), the “No. of replicates showing growth (out of 4)” value was 4; the “ΔOD 450 nm = OD450” value is −0.49; the “ΔOD 590 nm = OD590” value was found to be 0.58. Moreover, in assay [2] (setting [4]), the “No. of replicates showing growth (out of 4)” value was 4; the “ΔOD 450 nm = OD450” value is −0.51; the “ΔOD 590 nm = OD590” value turned out to be 0.60. In assay [2] (single active alone at […] w/v), the “No. of replicates showing growth (out of 4)” value stood at 4; the “ΔOD 450 nm = OD450” value was −0.49; the “ΔOD 590 nm = OD590” value was 0.59.
Consider `Oc1ccc(C2CCCC2)cc1` [4-cyclopentylphenol], for which the “SI (Synergy Index = Qa/QA + Qb/QB)” value in assay [1] is listed as 1.00.
As to `Oc1ccc(Cc2ccccc2)cc1` [4-hydroxydiphenylmethane], in assay [1], the “MBC of the component acting alone” value was 1.0 weight % and 0.6 weight %; the “SI (Synergy Index = Qa/QA + Qb/QB)” value is on record as 1.00. Also, the “MBC (% w/v)” value in assay [2] is over 0.2 % w/v. Also, in assay [2] (setting [3]), the “No. of replicates showing growth (out of 4)” value was 4; the “ΔOD 450 nm = OD450” value is given as −0.58; the “ΔOD 590 nm = OD590” value came out at 0.52. Besides, in assay [2] (setting [4]), the “No. of replicates showing growth (out of 4)” value is reported as 4; the “ΔOD 450 nm = OD450” value is given as −0.52; the “ΔOD 590 nm = OD590” value is on record as 0.61. In addition, in assay [2] (single active alone at […] w/v), the “No. of replicates showing growth (out of 4)” value amounted to 4; the “ΔOD 450 nm = OD450” value is −0.55; the “ΔOD 590 nm = OD590” value worked out at 0.54.
Regarding `CC(C)(C)c1ccc(O)c(O)c1` [4-tert-butylbenzene-1,2-diol], the MBC in assay [2] was over 2000 mg/L.
`Oc1cccc2c1CCCC2` [5,6,7,8-tetrahydronaphthalen-1-ol]: the “MBC of the component acting alone” value in assay [1] is recorded as 0.6 weight %.
On to `C=C(C)[C@@H]1CC[C@@H](C)C[C@H]1O` [(1R,2S,5R)-5-methyl-2-(prop-1-en-2-yl)cyclohexanol], for which, in assay [1], the “SI (Synergy Index = Qa/QA + Qb/QB)” value was found to be 1.00.
Take `C=C(C)C1CCC(C)CC1O` (centres unmarked) [Isopulegol, 5-methyl-2-(prop-1-en-2-yl)cyclohexanol]: the “ΔOD 450 nm = OD450” value in assay [2] (setting [5]) is recorded as −0.09. In assay [2] (single active alone at […] w/v), the “No. of replicates showing growth (out of 4)” value came to 4 and the “ΔOD 590 nm = OD590” value is reported as 0.64.
For the molecule cyclopentyl phenol, the “Log Reduction” value in the assay on S. aureus 6538 (0.05% cyclopentyl phenol) is on record as 1.9.
